Source: patent US9113629B2, “4-amino-6-(4-substituted-phenyl)-picolinates and 6-amino-2-(4-substituted-phenyl)-pyrimidine-4-carboxylates and their use as herbicides” (DOW AGROSCIENCES LLC, priority 2013, dated 2015)
Where two headings read alike, the source gives them in different places.

Legend:
[1] = test system: Key Grass and Sedge Weeds as well as Grass Crops; test: Post-emergent Test II herbicidal activity (Table 6); format: in vivo; conditions: post-emergence, 336 h; for pest or weed control at 70 g/ha: application rate 70 g ai/ha; for pest or weed control at 140 g/ha: application rate 140 g ai/ha
Procedure, shortened: (§1)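 Spray rates: a highest rate plus ½×, ¼×, ⅛×, 1/16×, all delivered at 187 L/ha to plants at the first–second true leaf stage. Readout is a visual percent injury score at 14 d, where 100 means complete kill.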

[2] = test system: Key Broadleaf Weed and Crop Species; test: Post-emergent Test II herbicidal activity (Table 5); format: in vivo; conditions: post-emergence, 336 h, post-emergent, 14 days after application; for pest or weed control at 70 g/ha: application rate 70 g ai/ha; for pest or weed control at 140 g/ha: application rate 140 g ai/ha
Procedure, shortened: as §1

[3] = CYPES: yellow nutsedge (Cyperus esculentus), read-out: Visual Growth Reduction (%) 14 Days After Application, CYPES
[4] = DIGSA: crabgrass (Digitaria sanguinalis), read-out: Visual Growth Reduction (%) 14 Days After Application, DIGSA
[5] = ECHCG: barnyardgrass (Echinochloa crus-galli), read-out: Visual Growth Reduction (%) 14 Days After Application, ECHCG
[6] = ORYSA: rice (Oryza sativa), read-out: Visual Growth Reduction (%) 14 Days After Application, ORYSA
[7] = SETFA: giant foxtail (Setaria faberi), read-out: Visual Growth Reduction (%) 14 Days After Application, SETFA
[8] = SORVU: grain sorghum (Sorghum vulgare), read-out: Visual Growth Reduction (%) 14 Days After Application, SORVU
[9] = TRZSS (wheat, Triticum aestivum), read-out: Visual Growth Reduction (%) 14 Days After Application, TRZSS
[10] = ZEAMX: maize, corn (Zea mays), read-out: Visual Growth Reduction (%) 14 Days After Application, ZEAMX
[11] = ABUTH: velvetleaf (Abutilon theophrasti), read-out: Visual Growth Reduction (%) 14 Days After Application, ABUTH
[12] = AMARE: redroot pigweed (Amaranthus retroflexus), read-out: Visual Growth Reduction (%) 14 Days After Application, AMARE
[13] = BRSNN: oilseed-rape, canola (Brassica napus), read-out: Visual Growth Reduction (%) 14 Days After Application, BRSNN
[14] = CHEAL: lambsquarters (Chenopodium album), read-out: Visual Growth Reduction (%) 14 Days After Application, CHEAL
[15] = EPHHL: wild poinsettia (Euphorbia heterophylla), read-out: Visual Growth Reduction (%) 14 Days After Application, EPHHL
[16] = HELAN: sunflower (Helianthus annuus), read-out: Visual Growth Reduction (%) 14 Days After Application, HELAN
[17] = VIOTR: wild pansy (Viola tricolor), read-out: Visual Growth Reduction (%) 14 Days After Application, VIOTR

Compound	pest or weed control at 70 g/ha [1, 3]	pest or weed control at 140 g/ha [1, 3]	pest or weed control at 70 g/ha [1, 4]	pest or weed control at 140 g/ha [1, 4]	pest or weed control at 70 g/ha [1, 5]	pest or weed control at 140 g/ha [1, 5]	pest or weed control at 70 g/ha [1, 6]	pest or weed control at 140 g/ha [1, 6]	pest or weed control at 70 g/ha [1, 7]	pest or weed control at 140 g/ha [1, 7]	pest or weed control at 70 g/ha [1, 8]	pest or weed control at 140 g/ha [1, 8]	pest or weed control at 70 g/ha [1, 9]	pest or weed control at 140 g/ha [1, 9]	pest or weed control at 70 g/ha [1, 10]	pest or weed control at 140 g/ha [1, 10]	pest or weed control at 70 g/ha [2, 11]	pest or weed control at 140 g/ha [2, 11]	pest or weed control at 70 g/ha [2, 12]	pest or weed control at 140 g/ha [2, 12]	also measured
COC(=O)c1nc(-c2cc(F)c(C)cc2F)nc(N)c1OC [Compound 185]	0 to 29%	0 to 29%	0 to 29%	0 to 29%	0 to 29%	0 to 29%	0 to 29%	0 to 29%	0 to 29%	0 to 29%	0 to 29%	0 to 29%	0 to 29%	0 to 29%	0 to 29%	0 to 29%	30 to 44%	45 to 59%	0 to 29%	0 to 29%	pest or weed control at 70 g/ha [2, 13]: 30 to 44%; pest or weed control at 140 g/ha [2, 13]: 45 to 59%; pest or weed control at 70 g/ha [2, 14]: 60 to 74%; pest or weed control at 140 g/ha [2, 14]: 95 to 100%; pest or weed control at 70 g/ha [2, 15]: 75 to 84%; pest or weed control at 140 g/ha [2, 15]: 85 to 94%; pest or weed control at 70 g/ha [2, 16]: 75 to 84%; pest or weed control at 140 g/ha [2, 16]: 85 to 94%; pest or weed control at 70 g/ha [2, 17]: 0 to 29%; pest or weed control at 140 g/ha [2, 17]: 0 to 29%; melting point: 163.4 to 164.8 °C
Cc1cc(F)c(-c2nc(C(=O)O)c(Cl)c(N)c2F)cc1F [Compound 194]	0 to 29%	0 to 29%	0 to 29%	0 to 29%	0 to 29%	0 to 29%	0 to 29%	0 to 29%	45 to 59%	60 to 74%	0 to 29%	0 to 29%	0 to 29%	0 to 29%	0 to 29%	0 to 29%	60 to 74%	75 to 84%	95 to 100%	95 to 100%	pest or weed control at 70 g/ha [2, 13]: 60 to 74%; pest or weed control at 140 g/ha [2, 13]: 75 to 84%; pest or weed control at 70 g/ha [2, 14]: 75 to 84%; pest or weed control at 140 g/ha [2, 14]: 85 to 94%; pest or weed control at 70 g/ha [2, 15]: 85 to 94%; pest or weed control at 140 g/ha [2, 15]: 85 to 94%; pest or weed control at 70 g/ha [2, 16]: 85 to 94%; pest or weed control at 140 g/ha [2, 16]: 95 to 100%; pest or weed control at 70 g/ha [2, 17]: 0 to 29%; pest or weed control at 140 g/ha [2, 17]: 0 to 29%; melting point: 167.4 to 170.2 °C
